The values that follow come from US20060264372A1, “Process for the synchronization of ovulation for timed breeding without heat detection” (priority 2003, published 2006).

One experiment has as its system mature postpartum sows. Nature of the experiment: Intravulvar deslorelin at estrus detection in mature postpartum sows, AI breeding (Example 2). It is filed as in vivo, swine. The note with it: per litter; 50 μg intravulvar at first estrus detection. How it is done:
Sows were assigned randomly in blocks of two to either control or to be injected intravulvar with 50 mcg of deslorelin in SAIB at the time of estrus detection for sows first detected in estrus in the a.m. and 12 hours later for those first detected in estrus in the p.m. Treated animals were bred AI upon detected estrus and again 24 hours later if still in estrus. Controls received a saline injection on first detected estrus behavior estrus detection and were bred according to the farm's normal procedures. Saline sows bred at detected estrus consistent with farm sows. Deslorelin sows injected intravulvar with 1 ml (50 μg deslorelin acetate) at first estrus detection and AI, then AI again if in estrus the next day. Live piglet number 0.6> in Deslorelin versus Saline sows.

A further experiment concerns postpartum sows. The experiment is described as follows: Timed deslorelin injection 96 hours post-weaning and single timed insemination without estrus detection (Example 3). It is filed as in vivo, swine. The note with it: 50 mcg in SAIB 96 hours post-weaning. How it is done:
Approximately 170 postpartum sows were randomly divided into two equal groups comprised of controls and treated. Following weaning, the controls were detected for estrus and bred following the normal standard operating procedures for the farms on which they resided. The treated sows received a 50 mcg dose of deslorelin in SAIB at 96 hours post-weaning and were bred with a single insemination 28±2 hours later with no regard to estrus detection. The sows were examined for pregnancy by ultrasound at 21 days and slaughtered around 28 days post breeding. The entire reproductive tract was removed and corpora lutea and embryos were counted.

Structures are written as SMILES.

`CCNC(=O)[C@@H]1CCCN1C(=O)[C@H](CCCN=C(N)N)NC(=O)[C@H](CC(C)C)NC(=O)[C@@H](Cc1c[nH]c2ccccc12)NC(=O)[C@H](Cc1ccc(O)cc1)NC(=O)[C@H](CO)NC(=O)[C@H](Cc1c[nH]c2ccccc12)NC(=O)[C@H](Cc1cnc[nH]1)NC(=O)[C@@H]1CCC(=O)N1` [Deslorelin, deslorelin]: the “Live piglet number, greater versus Saline sows” value in the experiment with mature postpartum sows came out at 0.6. In addition, the “Embryo Survival” value in the experiment with postpartum sows was 64%. The “Sows Pregnant” value with postpartum sows (single insemination 28±2 hours later, 84 in group) is on record as 60.
